Activity calls are given as the source filed them. Bridge positions count the residues as written; N and C are the ends. Square brackets hold non-standard residues; d marks the D form. Peptide text beside a SMILES is read from it. * marks the point of attachment. X1 = CCC(C)C(N)C1=NC(C(=O)*)CS1; dOrn = NCCC[C@@H](N)C(=O)O
How the values were obtained:
[1] = molecular target: T1, Endoribonuclease toxin MazF (Escherichia coli K-12, UniProt P0AE70); assay: MazF toxin RNase activators, dose response, biochemical, fluorescence, single-stranded RNA substrate, uHTS hits (AID 588481); type: functional
T1 sequence (P0AE70 whole entry): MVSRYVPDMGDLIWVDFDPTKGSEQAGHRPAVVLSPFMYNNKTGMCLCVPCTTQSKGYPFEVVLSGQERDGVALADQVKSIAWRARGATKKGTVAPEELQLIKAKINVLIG

[2] = molecular target: T1, Endoribonuclease toxin MazF; assay: fluorescent RNA oligo signal without MazF, dose response, counter-screen for MazEF activator project, biochemical, fluorescence, single-stranded RNase substrate (AID 588502); type: functional
Protein Wnt-3a = Protein Wnt-3a (Mus musculus, UniProt P27467); assay: Wnt3a-driven reporter signaling inhibition, dose response, selectivity assay for Gli-SUFU antagonist project, Wnt-LIGHT cells, luminescence (AID 651570); type: functional; details: read-out: IC50_Mean;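 further: Wnt-LIGHT reporter cells stimulated with conditioned medium from Wnt3a-producing cells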
[3] = molecular target: T2, Polyadenylate-binding protein 1 (Homo sapiens, UniProt P11940); assay: PABP1 MLLE–PAM2 interaction inhibitors, dose response, miRNA deadenylation inhibitor project, biochemical, fluorescence polarization, Cy5-PAM2 peptide, secondary (AID 602260); type: functional; details: read-out: IC50_Mean
[4] = molecular target: T2, Polyadenylate-binding protein 1; assay: PABP1 MLLE–PAM2 binding inhibitor potency, dose response, biochemical, fluorescence polarization, FITC-PAM2 peptide (AID 602259); type: functional; details: read-out: IC50_Mean
[5] = molecular target: T3, RNA-binding protein pos-1 (Caenorhabditis elegans, UniProt G5EF15); assay: inhibitors of POS-1/mex-3 RNA binding, dose response, biochemical, fluorescence polarization (AID 1964);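 further: purified POS-1 fused to maltose binding protein made in E. coli; potency of compounds blocking POS-1 binding to fluorescent RNA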
T3 sequence (G5EF15 whole entry): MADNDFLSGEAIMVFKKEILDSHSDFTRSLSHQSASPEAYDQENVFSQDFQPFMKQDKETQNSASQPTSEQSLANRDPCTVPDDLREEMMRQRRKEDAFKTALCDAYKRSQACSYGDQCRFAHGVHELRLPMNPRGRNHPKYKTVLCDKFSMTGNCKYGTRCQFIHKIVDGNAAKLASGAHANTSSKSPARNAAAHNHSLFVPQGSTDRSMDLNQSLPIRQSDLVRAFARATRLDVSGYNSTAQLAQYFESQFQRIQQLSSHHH

[6] = molecular target: T4, Zinc finger protein mex-5 (Caenorhabditis elegans, UniProt Q9XUB2); assay: MEX-5/TCR-2 RNA interaction inhibitors, dose response, biochemical, C. elegans, fluorescence polarization (AID 1960)
T4 sequence (Q9XUB2 whole entry): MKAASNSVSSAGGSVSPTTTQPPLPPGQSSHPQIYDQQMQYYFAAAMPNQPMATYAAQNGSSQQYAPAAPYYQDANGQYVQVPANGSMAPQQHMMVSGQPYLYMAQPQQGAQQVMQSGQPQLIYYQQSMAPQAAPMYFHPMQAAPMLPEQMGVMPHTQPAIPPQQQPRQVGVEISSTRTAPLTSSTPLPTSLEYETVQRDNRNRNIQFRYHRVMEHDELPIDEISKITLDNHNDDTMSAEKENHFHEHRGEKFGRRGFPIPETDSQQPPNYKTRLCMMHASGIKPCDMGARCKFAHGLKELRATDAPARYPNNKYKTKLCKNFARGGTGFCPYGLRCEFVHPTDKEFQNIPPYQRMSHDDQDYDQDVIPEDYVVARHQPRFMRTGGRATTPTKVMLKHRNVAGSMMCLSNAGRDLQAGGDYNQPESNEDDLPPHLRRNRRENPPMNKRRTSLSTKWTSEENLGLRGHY

[7] = molecular target: Glucose-6-phosphate 1-dehydrogenase (Homo sapiens, UniProt P11413); assay: human G6PD enzyme inhibitors, dose response, selectivity assay for P. falciparum G6PD inhibitor project, biochemical, fluorescence (AID 504792); type: functional
[8] = molecular target: T5, DNA repair and recombination protein RAD54-like (Homo sapiens, UniProt Q92698); assay: inhibitors of human RAD54 branch migration, confirmation, biochemical, fluorescence, cherry-picked samples, dose series (AID 651657); type: functional
T5 sequence (Q92698 whole entry): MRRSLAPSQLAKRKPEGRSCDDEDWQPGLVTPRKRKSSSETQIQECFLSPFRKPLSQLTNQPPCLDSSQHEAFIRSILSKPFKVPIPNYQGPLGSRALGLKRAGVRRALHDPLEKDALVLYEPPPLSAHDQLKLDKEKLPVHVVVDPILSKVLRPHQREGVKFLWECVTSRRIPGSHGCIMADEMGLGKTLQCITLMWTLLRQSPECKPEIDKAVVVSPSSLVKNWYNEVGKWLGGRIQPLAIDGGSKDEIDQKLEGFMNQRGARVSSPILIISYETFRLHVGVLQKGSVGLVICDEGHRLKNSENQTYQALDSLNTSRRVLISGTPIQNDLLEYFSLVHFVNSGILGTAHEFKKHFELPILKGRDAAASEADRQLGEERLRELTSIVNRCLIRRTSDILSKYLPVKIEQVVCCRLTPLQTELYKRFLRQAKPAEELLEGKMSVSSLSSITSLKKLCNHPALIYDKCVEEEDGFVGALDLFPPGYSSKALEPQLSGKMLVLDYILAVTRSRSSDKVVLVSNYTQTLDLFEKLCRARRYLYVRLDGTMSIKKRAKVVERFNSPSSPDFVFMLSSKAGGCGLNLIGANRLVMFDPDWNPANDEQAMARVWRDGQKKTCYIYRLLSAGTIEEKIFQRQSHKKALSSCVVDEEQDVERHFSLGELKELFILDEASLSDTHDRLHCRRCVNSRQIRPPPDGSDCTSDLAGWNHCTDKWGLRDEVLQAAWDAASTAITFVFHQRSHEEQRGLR

[9] = molecular target: DNA dC->dU-editing enzyme APOBEC-3G (Homo sapiens, UniProt Q9HC16); assay: APOBEC3G deaminase inhibitors, SAR follow-up, biochemical, fluorescence, single-stranded DNA substrate (AID 602136); type: functional; details: read-out: IC50_Mean
[10] = molecular target: DNA dC->dU-editing enzyme APOBEC-3A (Homo sapiens, UniProt P31941); assay: SAR analysis of small molecule inhibitors of APOBEC3A DNA Deaminase via a fluorescence-based single-stranded DNA deaminase assay.; type: functional; details: read-out: IC50_Mean
[11] = microbe, parasite or virus in culture; type: functional; details: Mycobacterium tuberculosis
[12] = molecular target: T6, Corticotropin-releasing factor receptor 2/Corticotropin-releasing factor-binding protein (Homo sapiens, UniProt P24387+Q13324); assay: Dose Response confirmation of uHTS hits for small molecule antagonists of the CRF-binding protein and CRF-R2 receptor complex.; type: functional; details: read-out: IC50_Mean
T6 sequence (Q13324 whole entry): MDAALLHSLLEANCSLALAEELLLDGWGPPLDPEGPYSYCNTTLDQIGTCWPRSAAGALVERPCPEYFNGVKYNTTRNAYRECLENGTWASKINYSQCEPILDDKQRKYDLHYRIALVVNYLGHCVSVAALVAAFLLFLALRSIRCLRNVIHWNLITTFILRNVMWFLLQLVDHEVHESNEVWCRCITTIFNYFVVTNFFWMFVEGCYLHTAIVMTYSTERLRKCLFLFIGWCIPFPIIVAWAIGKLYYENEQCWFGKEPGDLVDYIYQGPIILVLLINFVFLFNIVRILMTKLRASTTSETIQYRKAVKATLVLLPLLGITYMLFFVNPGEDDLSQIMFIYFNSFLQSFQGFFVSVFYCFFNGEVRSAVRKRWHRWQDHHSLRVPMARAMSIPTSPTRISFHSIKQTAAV
T6 sequence (P24387 whole entry): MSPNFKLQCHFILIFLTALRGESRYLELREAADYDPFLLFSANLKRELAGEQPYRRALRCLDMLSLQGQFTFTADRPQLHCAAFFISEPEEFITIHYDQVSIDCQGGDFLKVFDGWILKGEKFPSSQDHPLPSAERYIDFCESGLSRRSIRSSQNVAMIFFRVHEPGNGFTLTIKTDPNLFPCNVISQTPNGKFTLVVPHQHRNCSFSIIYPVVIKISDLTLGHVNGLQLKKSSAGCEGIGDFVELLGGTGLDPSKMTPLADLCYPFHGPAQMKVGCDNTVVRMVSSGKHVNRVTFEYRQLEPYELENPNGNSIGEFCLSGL

[13] = molecular target: T6, Corticotropin-releasing factor receptor 2/Corticotropin-releasing factor-binding protein; assay: activators of CRF receptor 2 with binding protein – uHTS hits, confirmation (AID 602473); type: functional; details: read-out: EC50_Mean
[14] = CRF-BP/CRF-R2 complex antagonists, dose response, cell-based, uHTS hits, 384-well (AID 651639); type: functional, Homo sapiens; details: read-out: IC50_Mean
[15] = intracellular Trypanosoma cruzi inhibitors in host cells – cell-based, plate reader, cherry-pick samples, set 3, dose response (AID 651818); type: functional;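 further: compounds incubated with infected cells for about four days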
[16] = inhibitors of intracellular T. cruzi replication, confirmation, NIH3T3 host cells, beta-gal luminescence (AID 2044); type: functional, cell-based;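 further: intracellular parasites grown in NIH/3T3 mouse fibroblasts as host cells; luminescent beta-galactosidase reporter signal from transgenic T. cruzi replicating inside host cells; inhibitors lower the luminescence signal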
[17] = Shn3 3'UTR reporter inhibitors, dose response, cell-based, Clone20 osteoblasts, firefly luciferase, cherry-picked (AID 624132); type: functional;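 further: firefly luciferase luminescence from reporter carrying the Shn3 3'UTR in osteoblasts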
[18] = HepG2 cell cytotoxicity, dose response, cytotoxicity control for Shn3 inhibitor project, CellTiter-Glo, cherry-picked (AID 624134); type: functional, cell-based
[19] = control 3'UTR Renilla luciferase suppression, dose response, counter-screen for Shn3 inhibitor project, cell-based, Clone20-Shn3RL, cherry-picked (AID 624133); type: functional
[20] = molecular target: Luciferin 4-monooxygenase (Photinus pyralis, UniProt P08659); assay: firefly luciferase enzyme inhibitors, dose response, biochemical, luminescence (AID 1891)
[21] = Luminescence Cell-Based Dose Confirmation HTS to Identify Inhibitors of Platelet Dense Granule Release. [Related pubchem assays: 1663 (Primary HTS), 1678 (Summary of Project)]; type: functional
Cytochrome P450 3A4 = Cytochrome P450 3A4 (Homo sapiens, UniProt P08684); details: Potency;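 further: confirmatory qHTS run detecting inhibitors and substrates of CYP3A4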
[22] = molecular target: Voltage-gated inwardly rectifying potassium channel KCNH2 (Homo sapiens, UniProt Q12809); details: Potency;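 further: confirmatory quantitative high-throughput screen measuring inhibition of hERG channel activity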
Sequence of Voltage-gated inwardly rectifying potassium channel KCNH2 (Q12809 whole entry): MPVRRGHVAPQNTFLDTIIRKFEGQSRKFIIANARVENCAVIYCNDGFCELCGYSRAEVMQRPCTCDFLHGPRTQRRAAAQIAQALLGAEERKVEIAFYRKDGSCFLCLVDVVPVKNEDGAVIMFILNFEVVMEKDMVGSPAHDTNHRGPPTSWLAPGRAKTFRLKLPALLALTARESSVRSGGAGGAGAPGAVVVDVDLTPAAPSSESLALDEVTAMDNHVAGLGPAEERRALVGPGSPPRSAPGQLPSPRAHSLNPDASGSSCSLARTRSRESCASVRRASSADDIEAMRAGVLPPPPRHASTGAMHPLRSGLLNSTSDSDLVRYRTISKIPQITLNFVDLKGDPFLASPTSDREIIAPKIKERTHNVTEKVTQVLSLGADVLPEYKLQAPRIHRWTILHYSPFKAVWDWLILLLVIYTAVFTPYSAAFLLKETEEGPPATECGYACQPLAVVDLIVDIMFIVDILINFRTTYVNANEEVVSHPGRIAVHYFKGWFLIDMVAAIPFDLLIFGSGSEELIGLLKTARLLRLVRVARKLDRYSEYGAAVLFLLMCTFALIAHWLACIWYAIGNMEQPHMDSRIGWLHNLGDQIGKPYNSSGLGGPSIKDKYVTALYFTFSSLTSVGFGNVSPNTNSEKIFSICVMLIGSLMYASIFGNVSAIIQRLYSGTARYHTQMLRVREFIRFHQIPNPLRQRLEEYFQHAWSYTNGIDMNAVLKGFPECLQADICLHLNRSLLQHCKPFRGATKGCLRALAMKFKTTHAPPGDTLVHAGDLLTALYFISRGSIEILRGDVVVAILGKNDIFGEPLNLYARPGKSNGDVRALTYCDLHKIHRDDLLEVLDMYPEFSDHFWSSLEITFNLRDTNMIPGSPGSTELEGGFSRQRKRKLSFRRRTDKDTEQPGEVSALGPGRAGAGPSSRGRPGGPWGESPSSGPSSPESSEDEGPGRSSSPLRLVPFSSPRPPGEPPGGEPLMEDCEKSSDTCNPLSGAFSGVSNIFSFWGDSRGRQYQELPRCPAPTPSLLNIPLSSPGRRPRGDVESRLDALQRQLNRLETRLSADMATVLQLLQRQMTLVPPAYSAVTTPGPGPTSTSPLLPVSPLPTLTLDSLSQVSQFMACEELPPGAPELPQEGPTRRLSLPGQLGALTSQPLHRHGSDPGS

Sequence of DNA dC->dU-editing enzyme APOBEC-3A (P31941 whole entry): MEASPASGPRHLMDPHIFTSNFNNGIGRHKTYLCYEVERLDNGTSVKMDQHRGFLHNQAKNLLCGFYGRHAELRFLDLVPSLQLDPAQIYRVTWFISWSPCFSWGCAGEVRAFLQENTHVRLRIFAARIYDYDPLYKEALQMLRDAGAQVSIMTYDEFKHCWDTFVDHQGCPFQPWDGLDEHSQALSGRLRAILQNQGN
Sequence of Protein Wnt-3a (P27467 whole entry): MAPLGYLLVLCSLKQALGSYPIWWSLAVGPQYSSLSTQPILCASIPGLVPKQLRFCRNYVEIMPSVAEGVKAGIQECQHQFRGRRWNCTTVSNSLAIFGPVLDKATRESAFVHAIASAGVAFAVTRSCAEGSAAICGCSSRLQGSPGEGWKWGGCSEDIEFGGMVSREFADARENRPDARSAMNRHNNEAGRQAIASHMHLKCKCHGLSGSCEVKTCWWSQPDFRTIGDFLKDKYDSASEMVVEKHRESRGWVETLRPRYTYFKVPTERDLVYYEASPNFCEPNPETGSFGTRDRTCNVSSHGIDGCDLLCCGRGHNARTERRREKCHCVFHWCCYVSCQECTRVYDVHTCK
Sequence of DNA dC->dU-editing enzyme APOBEC-3G (Q9HC16 whole entry): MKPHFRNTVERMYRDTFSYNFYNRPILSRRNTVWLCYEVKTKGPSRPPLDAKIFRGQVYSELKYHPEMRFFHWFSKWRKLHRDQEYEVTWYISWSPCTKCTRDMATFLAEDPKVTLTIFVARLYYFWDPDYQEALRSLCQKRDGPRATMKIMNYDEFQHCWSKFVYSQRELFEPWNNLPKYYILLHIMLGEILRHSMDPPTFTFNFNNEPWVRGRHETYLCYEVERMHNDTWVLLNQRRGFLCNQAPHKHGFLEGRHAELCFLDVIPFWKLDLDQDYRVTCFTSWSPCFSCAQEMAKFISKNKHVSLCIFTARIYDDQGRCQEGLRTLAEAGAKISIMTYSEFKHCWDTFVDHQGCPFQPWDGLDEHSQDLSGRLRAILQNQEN
T2 sequence (P11940 whole entry): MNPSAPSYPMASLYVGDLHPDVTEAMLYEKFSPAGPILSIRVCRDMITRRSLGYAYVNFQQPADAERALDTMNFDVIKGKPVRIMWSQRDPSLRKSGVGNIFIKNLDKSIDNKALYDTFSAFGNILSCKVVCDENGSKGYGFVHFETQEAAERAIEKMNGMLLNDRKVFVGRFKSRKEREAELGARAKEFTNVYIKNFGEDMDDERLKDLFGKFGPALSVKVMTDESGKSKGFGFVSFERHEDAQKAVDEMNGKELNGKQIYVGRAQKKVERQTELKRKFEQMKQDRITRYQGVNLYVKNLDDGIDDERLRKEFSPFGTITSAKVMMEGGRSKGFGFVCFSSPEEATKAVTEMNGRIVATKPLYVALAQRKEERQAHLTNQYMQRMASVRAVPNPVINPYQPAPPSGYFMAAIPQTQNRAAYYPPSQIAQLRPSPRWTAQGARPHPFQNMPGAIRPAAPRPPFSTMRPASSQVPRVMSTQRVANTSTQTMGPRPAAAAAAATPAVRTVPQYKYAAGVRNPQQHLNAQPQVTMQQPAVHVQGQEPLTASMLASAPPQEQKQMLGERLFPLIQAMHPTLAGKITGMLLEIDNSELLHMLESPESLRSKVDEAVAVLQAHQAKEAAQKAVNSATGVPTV
Sequence of Cytochrome P450 3A4 (P08684 whole entry): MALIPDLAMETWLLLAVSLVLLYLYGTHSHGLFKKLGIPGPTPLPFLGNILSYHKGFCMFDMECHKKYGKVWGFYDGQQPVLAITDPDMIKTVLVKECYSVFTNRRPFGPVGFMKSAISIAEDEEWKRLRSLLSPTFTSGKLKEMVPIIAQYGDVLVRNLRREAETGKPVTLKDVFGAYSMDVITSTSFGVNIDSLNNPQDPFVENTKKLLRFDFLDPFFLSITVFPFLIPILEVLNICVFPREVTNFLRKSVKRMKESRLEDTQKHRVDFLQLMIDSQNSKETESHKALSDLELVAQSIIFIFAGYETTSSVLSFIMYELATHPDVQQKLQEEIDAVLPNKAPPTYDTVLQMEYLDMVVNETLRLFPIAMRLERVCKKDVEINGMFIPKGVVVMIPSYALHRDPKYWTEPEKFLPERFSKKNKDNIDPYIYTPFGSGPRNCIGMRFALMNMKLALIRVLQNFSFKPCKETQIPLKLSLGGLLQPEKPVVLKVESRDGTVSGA
Sequence of Luciferin 4-monooxygenase (P08659 whole entry): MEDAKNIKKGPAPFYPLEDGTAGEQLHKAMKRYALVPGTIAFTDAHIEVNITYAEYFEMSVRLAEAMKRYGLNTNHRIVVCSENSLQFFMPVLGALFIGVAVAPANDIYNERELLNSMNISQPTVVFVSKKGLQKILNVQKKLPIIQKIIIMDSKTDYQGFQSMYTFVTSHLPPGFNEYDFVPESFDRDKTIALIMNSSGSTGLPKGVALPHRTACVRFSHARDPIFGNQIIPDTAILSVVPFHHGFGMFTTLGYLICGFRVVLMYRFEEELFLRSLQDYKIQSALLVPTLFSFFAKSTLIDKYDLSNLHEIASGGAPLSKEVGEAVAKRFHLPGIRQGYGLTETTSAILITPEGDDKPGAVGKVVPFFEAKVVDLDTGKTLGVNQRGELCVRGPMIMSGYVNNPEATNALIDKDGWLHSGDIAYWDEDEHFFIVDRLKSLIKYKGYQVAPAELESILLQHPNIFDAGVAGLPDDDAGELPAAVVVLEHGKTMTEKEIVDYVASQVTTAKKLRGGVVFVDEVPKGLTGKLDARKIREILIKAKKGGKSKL
Sequence of Glucose-6-phosphate 1-dehydrogenase (P11413 whole entry): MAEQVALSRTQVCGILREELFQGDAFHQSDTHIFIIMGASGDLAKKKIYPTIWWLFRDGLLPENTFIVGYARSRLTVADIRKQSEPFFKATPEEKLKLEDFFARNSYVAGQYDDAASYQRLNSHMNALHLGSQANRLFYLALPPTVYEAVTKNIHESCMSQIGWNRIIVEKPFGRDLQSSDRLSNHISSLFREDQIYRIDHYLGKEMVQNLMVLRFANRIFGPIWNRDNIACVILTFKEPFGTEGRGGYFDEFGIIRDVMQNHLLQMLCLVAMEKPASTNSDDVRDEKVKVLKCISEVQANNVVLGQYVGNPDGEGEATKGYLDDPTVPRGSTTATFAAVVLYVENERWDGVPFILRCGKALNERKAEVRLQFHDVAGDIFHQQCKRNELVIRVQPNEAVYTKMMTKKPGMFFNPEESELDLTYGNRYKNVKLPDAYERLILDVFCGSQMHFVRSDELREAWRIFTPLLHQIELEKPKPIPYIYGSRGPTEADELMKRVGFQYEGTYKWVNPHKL

CCC(C)C(N)C1=NC(C(=O)N[C@@H](CC(C)C)C(=O)N[C@H](CCC(=O)O)C(=O)N[C@H](C(=O)N[C@H]2CCCCNC(=O)[C@H](CC(N)=O)NC(=O)[C@@H](CC(=O)O)NC(=O)[C@H](Cc3c[nH]cn3)NC(=O)[C@@H](Cc3ccccc3)NC(=O)[C@H]([C@@H](C)CC)NC(=O)[C@@H](CCCN)NC2=O)[C@@H](C)CC)CS1 (some centres undefined) (X1-L[dE]IK[dOrn]I[dF]H[dD]N; lactam 4-C)
EC50 [1]: 30.8 µM (inactive)
EC50 [2]: 4.71 µM (active)

CC(=O)Nc1ccc(S(=O)(=O)N(Cc2ccccc2)C(C)C)cc1
IC50 (Protein Wnt-3a): 22.1 µM (inactive)

CCOc1ccc(/N=C/C=C(/O)c2ccc(OC)cc2)c([N+](=O)[O-])c1
EC50 [1]: > 99 µM (inactive)
EC50 [2]: 6.29 µM (active)
IC50 [3]: > 66 µM (inactive)
IC50 [4]: > 66 µM (inactive)

FC(F)Oc1ccc(-c2cn3c([n+]2-c2ccccc2)CCCCC3)cc1
IC50 (Protein Wnt-3a): 3.83 µM (active)

O=c1[nH]nc(CNc2ccc(O)cc2)c2ccccc12
EC50 [5]: 11.8 µM (active)
EC50 [6]: 15.3 µM (inconclusive)
IC50 [7]: > 80 µM (inactive)
EC50 [1]: > 99 µM (inactive)
EC50 [2]: > 99 µM (inactive)

COc1ccc(CCNC(=O)c2cc3c(=O)n4cccc(C)c4nc3n(CCCN3CCOCC3)c2=N)cc1
EC50 [5]: 66.4 µM (active)
EC50 [6]: 192 µM (active)
AC50 [8]: 16.2 µM (active)

CN1CCN(CCNC(=O)c2cc3c(=O)n(C)c4ccccc4c3n2C)CC1
AC50 [8]: 35.3 µM (active)

CCc1ccc(Nc2nc(Nc3cccc(OC)c3)nc(N3CCOCC3)n2)cc1
IC50 [9]: 47.7 µM (inactive)
IC50 [10]: > 99 µM (inactive)

COc1ccc(CCNc2nc(N3CCCCC3)nc(N3CCCCC3)n2)cc1OC
CC50 [11]: > 40 µM (active)
IC50 [12]: 7.8 µM (active)
EC50 [13]: > 53 µM (inactive)
IC50 [14]: > 20 µM (inactive)

COc1ccc(S(=O)(=O)Nc2cccc3c2O[C@H](CN(C)Cc2ccc(C(=O)Nc4ccccc4N)cc2)[C@@H](C)CN([C@H](C)CO)C3=O)cc1
AC50 [15]: 4.11 µM (active)

CCC(C(=O)Nc1nnc(SCCOC)s1)c1ccccc1 (centres undefined)
IC50 [9]: > 99 µM (inactive)
IC50 [10]: > 99 µM (inactive)

O=C(c1cc2nc(-c3ccc(F)cc3)cc(C(F)(F)F)n2n1)N1CCCCC1c1cccnc1 (centres undefined)
EC50 [16]: 164 nM (active)
CC50 [11]: > 40 µM (active)
AC50 [17]: 2.37 µM (active)
AC50 [18]: 5.1 µM (active)
AC50 [19]: 2.12 µM (active)
IC50 (Protein Wnt-3a): 3.57 µM (active)

Cc1ccc(CC(=O)Nc2nnc(-c3ccncc3)s2)cc1
IC50 [9]: > 99 µM (inactive)
IC50 [10]: > 99 µM (inactive)

O=C(N=CNOCc1ccc(Cl)cc1Cl)NOCc1c(Cl)cccc1Cl
EC50 [20]: > 112 µM (not active)
EC50 [21]: > 112 µM (not active)
EC50 [1]: > 99 µM (inactive)
EC50 [2]: > 99 µM (inactive)

CCCN(CCC)c1c([N+](=O)[O-])cc(C(F)(F)F)cc1[N+](=O)[O-] [TRIFLURALIN]
AC50 (Cytochrome P450 3A4): 15.8 µM (inconclusive)
AC50 [22]: 14.1 µM (inconclusive)

COc1ccc(NC(=O)Nc2cccc3c2O[C@@H](CN(C)Cc2ccc(C(=O)Nc4ccccc4N)cc2)[C@H](C)CN([C@@H](C)CO)C3=O)cc1
AC50 [15]: 0.535 µM (active)

CNC(=O)OCC[N+](C)(C)C [METHYLCARBAMYLCHOLINE CHLORIDE]
AC50 [22]: 35.5 µM (inconclusive)

Cc1nn(-c2cccc(Cl)c2)c2nc(C(F)(F)F)nc(O)c12
IC50 [14]: 17.8 µM (active)

Cc1ccc(S(=O)(=O)N(C)C[C@H]2Oc3ccc(NS(=O)(=O)c4cccs4)cc3CC(=O)N([C@H](C)CO)C[C@H]2C)cc1
AC50 [15]: 2.05 µM (active)

Reference: ChEMBL document CHEMBL1201862, “PubChem BioAssay data set” (2004)
